System: Mus musculus
Assay: Compound administered at a concentration of 0.75 mmol/kg intraperitoneally was evaluated for its effect on pentylenetetrazole induced convulsions in mice, measured as latency to convulsion

C1CCc2nnnn2CC1.O=C1O[C@H]([C@@H](O)COC(=O)C2CCCNC2)C(O)=C1O (stereo partly specified)
Latency: 922 s

Reference: ChEMBL document CHEMBL1135700, “Design, synthesis and activity of ascorbic acid prodrugs of nipecotic, kynurenic and diclophenamic acids, liable to increase neurotropic activity” (2002)
